Measured values reported in ChEMBL document CHEMBL3046312, “Synthesis and biologic evaluation of new 3-phenoxyazetidin-2-one derivatives as selective cyclooxygenase-2 inhibitors” (Med Chem Res, 2013).

The molecules below were run against T1, Prostaglandin G/H synthase 1 (Ovis aries, UniProt P05979) (assay: Inhibition of Ovis aries (sheep) cyclooxygenase-1 using arachidonic acid as substrate by chemiluminescent assay).
T1 sequence (P05979 whole entry): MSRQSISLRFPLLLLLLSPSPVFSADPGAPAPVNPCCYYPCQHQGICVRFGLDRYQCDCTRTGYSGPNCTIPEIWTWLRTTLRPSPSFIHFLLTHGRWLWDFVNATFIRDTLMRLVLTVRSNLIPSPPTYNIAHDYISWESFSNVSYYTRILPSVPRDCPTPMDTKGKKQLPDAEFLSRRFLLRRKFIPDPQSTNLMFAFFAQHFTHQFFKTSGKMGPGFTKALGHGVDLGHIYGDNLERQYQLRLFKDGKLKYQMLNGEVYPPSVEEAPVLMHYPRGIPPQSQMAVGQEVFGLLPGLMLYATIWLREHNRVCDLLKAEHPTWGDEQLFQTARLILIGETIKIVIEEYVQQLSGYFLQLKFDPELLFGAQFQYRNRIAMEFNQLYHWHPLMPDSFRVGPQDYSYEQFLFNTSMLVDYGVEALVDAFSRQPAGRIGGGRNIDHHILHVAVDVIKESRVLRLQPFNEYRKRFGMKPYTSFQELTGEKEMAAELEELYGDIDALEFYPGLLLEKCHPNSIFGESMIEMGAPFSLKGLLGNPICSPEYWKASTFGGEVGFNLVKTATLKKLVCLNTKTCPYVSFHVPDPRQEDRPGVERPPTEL
CCCN1C(=O)[C@@H](Oc2ccccc2)[C@H]1c1ccc(S(C)(=O)=O)cc1 (relative stereo) was tested, and the IC50 was 21.7 µM.
CC(C)N1C(=O)[C@@H](Oc2ccccc2)[C@H]1c1ccc(S(C)(=O)=O)cc1 (relative stereo) showed an IC50 of 21.8 µM.
Work on CCCCN1C(=O)[C@@H](Oc2ccccc2)[C@H]1c1ccc(S(C)(=O)=O)cc1 (relative stereo) yielded an IC50 of 20.9 µM.
CCCCCN1C(=O)[C@@H](Oc2ccccc2)[C@H]1c1ccc(S(C)(=O)=O)cc1 (relative stereo) was tested, and the IC50 was 21.2 µM.
CS(=O)(=O)c1ccc([C@@H]2[C@H](Oc3ccccc3)C(=O)N2C2CCCCC2)cc1 (relative stereo) gave an IC50 of 19.5 µM.
In the case of CS(=O)(=O)c1ccc([C@@H]2[C@H](Oc3ccccc3)C(=O)N2c2ccccc2)cc1 (relative stereo), the IC50 is reported as 19.9 µM.
CS(=O)(=O)c1ccc([C@@H]2[C@H](Oc3ccccc3)C(=O)N2c2ccc(F)cc2)cc1 (relative stereo) gave an IC50 of 19 µM.
Work on CS(=O)(=O)c1ccc([C@@H]2[C@H](Oc3ccccc3)C(=O)N2c2ccc(Cl)cc2)cc1 (relative stereo) yielded an IC50 of 18.3 µM.
Cc1ccc(N2C(=O)[C@@H](Oc3ccccc3)[C@H]2c2ccc(S(C)(=O)=O)cc2)cc1 (relative stereo) gave an IC50 of 18.1 µM.
COc1ccc(N2C(=O)[C@@H](Oc3ccccc3)[C@H]2c2ccc(S(C)(=O)=O)cc2)cc1 (relative stereo) showed an IC50 of 19.2 µM.
